# Results reported in patent US20120108538A1, “SULFATED POLYSACCHARIDES HAVING ANTIPLASMODIAL ACTIVITY AND METHODS AND PRODUCTS FOR IDENTIFYING ANTIPLASMODIAL ACTIVITY” (priority 2009, published 2012).
# Entries after “also recorded” stand apart in the source; their conditions may differ.
# What was measured:
# MSP1-42 = MSP1-42 (Plasmodium falciparum, UniProt Q8I0U8); assay: Binding of native merozoite proteins to heparin-agarose beads with soluble inhibitors; parameters: proteolytically processed into 83 kDa, 30 kDa, 38 kDa and a C-terminal 42kDa (MSP1-42) fragment; endogenous in cells; host or cells: P. falciparum schizont-stage cultures, Triton X-100 extract; species or system P. falciparum; settings: soluble inhibitor 200 μg/mL
# MSP1-42, sequence (Q8I0U8 1327-1699): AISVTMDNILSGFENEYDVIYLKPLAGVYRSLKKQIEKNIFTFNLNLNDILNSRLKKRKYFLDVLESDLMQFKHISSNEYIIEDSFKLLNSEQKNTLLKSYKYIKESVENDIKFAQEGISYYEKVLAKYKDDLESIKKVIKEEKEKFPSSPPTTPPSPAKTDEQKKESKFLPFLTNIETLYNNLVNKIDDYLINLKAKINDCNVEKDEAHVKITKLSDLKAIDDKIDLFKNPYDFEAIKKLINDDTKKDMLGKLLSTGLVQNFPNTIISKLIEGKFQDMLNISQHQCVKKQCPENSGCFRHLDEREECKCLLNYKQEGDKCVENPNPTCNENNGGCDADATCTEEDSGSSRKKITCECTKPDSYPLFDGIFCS
# Excerpt: Synchronized schizont stage (40-48 hr, 5-8% parasitemia) cultures were used for protein extraction. Uninfected erythrocytes were lysed with 0.15% saponin (Kodak) on ice for ten minutes. Remaining pellets were washed three times with cold HT-PBS. Protein from schizonts was extracted with 5 times volume of 1% TritonX100 (TX100) (Sigma-Aldrich, Australia), HT-PBS with protease inhibitors (Roche). Insoluble components were pelleted by centrifugation and supernatants collected. Schizont TX100 extracted proteins were bound to heparin-agarose beads (Sigma-Aldrich, Australia) as previously described. Heparin-agarose beads were washed once with 1% casein in PBS, once in PBS, and then blocked with 1% casein in PBS overnight at 4° C. TX100 merozoite protein extracts where incubated with beads containing 0.1% casein and 200 μg/mL of test inhibitor, or PBS as control, overnight at 4° C.; 50 μL of packed beads and 100 μL protein and inhibitor were used or each test sample. Inhibitors used were heparin and CSC. Unbound proteins in the supernatant were collected through Micro Bio-Spin Chromatography Columns (Bio-Rad). After incubation, beads were washed five times with PBS containing 0.1% casein and 1% Triton X-100. Bound proteins were eluted from beads with 50 μL of warmed reducing sample buffer. Bound and unbound proteins were separated by SDS-PAGE under reducing conditions and blotted onto membranes for probing with antibody detection with anti-MSP1 or anti-EBA175. 36. Baum J, Chen L, Healer J, Lopaticki S, Boyle M, et al. (2009) Reticulocyte-binding protein homologue 5—an essential adhesin involved in invasion of human erythrocytes by Plasmodium falciparum: Int J Parasitol 39: 371-380.
# [1] = tested on: P. falciparum blood stage growth; assay: Growth inhibition assay (GIA), flow cytometry; type: cell-based, Plasmodium falciparum; settings: for inhibition of different P. falciparum lines: 3D7, W2mef, D10, E8B, XIE, HCS3, SA-dependent and SA-independent invasion
# Protocol: P. falciparum was cultured as described. Parasites were maintained in culture media of RPMI-HEPES supplemented with 5% (vol/vol) heat inactivated (56° C. 1 hr) human serum (Australian Red Cross Blood Bank),. […] (Gibco), 10mM L-glutamine (Gibco) and 25 mM […]. Parasites were grown at 37° C., 2% hematocrit, O+ human erythrocytes (Australian Red Cross Blood Bank), 1% O2 4% CO2 95% N2 atmosphere. Sorbitol (Sigma-Aldrich) was used to synchronize cultures. 32. Persson K E, Lee C T, Marsh K, Beeson J G (2006) Development and optimization of high-throughput methods to measure Plasmodium falciparum-specific growth inhibitory antibodies. J Clin Microbiol 44: 1665-1673.33. Lambros C, Vanderberg J P (1979) Synchronization of Plasmodium falciparum erythrocytic stages in culture. J Parasitol 65: 418-420.
# Heparin and K5 polysaccharides (Table 1) were tested for inhibitory activity against P. falciparum parasites using high throughput growth inhibitory assays (GlAs). Duplicate 25 μl suspensions of synchronized parasites, 2% parasitemia (32 hr trophozoite), 1% hematocrit with normal or enzymatically treated erythrocyctes, were incubated with inhibitory compounds in 96 well sterile U-bottom plates (Falcon). For humidification, outside wells were filled with sterile human tonicity phosphate-buffered saline (HT-PBS). Plates were incubated as for parasite culture for 44 hrs and analyzed. Parasites were stained with 10 μg/mL ethidium bromide (EtBr) (BioRad), HT-PBS, 1 hr in darkness. Cells were washed and re-suspended in 200 μL HT-PBS. Parasitemia was measured using FACSCalibur flow-cytometry. Data were analyzed using FlowJo (Tree Star), gating on intact erythrocytes and determining parasitemia by EtBr staining. Inhibitory effects of compounds were expressed as percent growth of uninhibited controls (HT-PBS) for each experiment.
# Erythrocytes were treated with neuraminidase, chymotrypsin and trypsin as described previously. Erythrocytes were washed with RPMI-HEPES and incubated with neuraminidase ([…], 15 minutes), chymotrypsin (1 mg/mL, 45 minutes) or trypsin (100 μg/mL, […]) at 37° C. Neuraminidase treated bells were washed three times with RPMI-HEPES and chymotrypsin and trypsin treated cells were washed once with culture media and twice with RPMI-HEPES and then used in GIAs. 34. Persson K E, McCallum F J, Reiling L, Lister N A, Stubbs J, et al. (2008) Variation in use of erythrocyte invasion pathways by Plasmodium falciparum mediates evasion of human inhibitory antibodies. J Clin Invest 118: 342-351.
substance,measurement,setting,value
Heparin,inhibition of native MSP1-42 binding to heparin-agarose beads,MSP1-42,effectively inhibited
same,inhibition of different P. falciparum lines,[1],inhibited to similar levels
same,inhibition of different P. falciparum lines,[1]; listed as Heparin,inhibited all parasite lines tested; also recorded: inhibited at equal levels
same,inhibition of invasion into enzyme-treated versus control erythrocytes,"[1]; 3D7, neuraminidase, trypsin, chymotrypsin treated erythrocytes",equivalent
same,"IC50, inhibition of P. falciparum blood stage growth in GIA","[1]; 3D7 parasite line, one cycle of parasite growth",19 µg/mL
same,selection of heparin-resistant parasites,[1]; 3D7 selected once or twice with heparin 100 μg/mL for 48 hrs,no evidence that Applicant were able to select for increased resistance
same,IC50 of heparin in combination with AMA1-binding peptide,[1]; AMA1-binding peptide at 6.25 μg/mL,~3 µg/mL
same,parasite growth over one cycle of replication,[1]; heparin 100 μg/mL,a very low level of parasite growth
same,combination with pyrimethamine,[1]; heparin with increasing pyrimethamine,acted in an additive manner
